ChEMBL document CHEMBL1154913, “Sesquiterpene lactones from Anthemis melanolepis and their antibacterial and cytotoxic activities. Prediction of their pharmacokinetic profile” (2010)
≈ marks a conversion by molar mass, not a printed value. Calls of active or inactive are those of the source. No cut-off for these calls is given here.

Tests used:
[1] = system: Staphylococcus aureus; assay: Antibacterial activity against Staphylococcus aureus ATCC 6538 after 48 hrs by serial dilution technique; format: functional; conditions: ATCC 6538, 48 h
[2] = system: Pseudomonas aeruginosa; assay: Antibacterial activity against Pseudomonas aeruginosa clinical isolate after 48 hrs by serial dilution technique; format: functional
[3] = system: Micrococcus luteus; assay: Antibacterial activity against Micrococcus luteus clinical isolate after 48 hrs by serial dilution technique; format: functional
[4] = system: Micrococcus luteus; assay: Antibacterial activity against Sarcina lutea ATCC 9341 after 48 hrs by serial dilution technique; format: functional; conditions: ATCC 9341, 48 h
[5] = system: Agrobacterium tumefaciens; assay: Antibacterial activity against Agrobacterium tumefaciens A 281 after 48 hrs by serial dilution technique; format: functional; conditions: A 281, 48 h
[6] = system: Pseudomonas tolaasii; assay: Antibacterial activity against Pseudomonas tolaasii after 48 hrs by serial dilution technique; format: functional
[7] = system: Salmonella enterica; assay: Antibacterial activity against Salmonella enteritidis ATCC 13076 after 48 hrs by serial dilution technique; format: functional, Salmonella enterica subsp. enterica serovar Enteritidis; conditions: ATCC 13076, 48 h
[8] = system: Escherichia coli; assay: Antibacterial activity against Escherichia coli ATCC 35218 after 48 hrs by serial dilution technique; format: functional; conditions: ATCC 35218, 48 h
[9] = system: Bacillus cereus; assay: Antibacterial activity against Bacillus cereus clinical isolate after 48 hrs by serial dilution technique; format: functional
[10] = system: Proteus mirabilis; assay: Antibacterial activity against Proteus mirabilis clinical isolate after 48 hrs by serial dilution technique; format: functional, organism-based
[11] = system: SF-268; assay: Cytotoxicity against human SF268 cells after 48 hrs by SRB assay; format: functional; conditions: SF-268, 48 h
[12] = system: MCF7; assay: Cytotoxicity against human MCF7 cells at 100 uM after 48 hrs by SRB assay; format: functional, cell-based
[13] = system: NCI-H460; assay: Cytotoxicity against human H460 cells at 100 uM after 48 hrs by SRB assay; format: functional, cell-based
[14] = system: SF-268; assay: Cytotoxicity against human SF268 at 100 uM cells after 48 hrs by SRB assay; format: functional, cell-based
[15] = system: Candida albicans; assay: Antifungal activity against Candida albicans clinical isolate after 48 hrs by serial dilution technique; format: functional
[16] = system: MCF7; assay: Cytotoxicity against human MCF7 cells after 48 hrs by SRB assay; format: functional; conditions: MCF7, 48 h
[17] = system: NCI-H460; assay: Cytotoxicity against human H460 cells after 48 hrs by SRB assay; format: functional; conditions: NCI-H460, 48 h

Compound | MIC [1] | MIC [2] | MIC [3] | MIC [4] | MIC [5] | MIC [6] | MIC [7] | MIC [8] | MIC [9] | MIC [10] | GI50 [11] | LC50 [13] | TGI [13] | LC50 [14] | MIC [15] | other results
C=C1C(=O)O[C@H]2/C=C(\C)[C@@H](O)CC[C@@]3(C)O[C@@H]3[C@H](O)[C@H]12 | 1.25 µg/mL (≈ 4.46 µM) | 50 µg/mL (≈ 178 µM) | 12.5 µg/mL (≈ 44.6 µM) | 6.25 µg/mL (≈ 22.3 µM) | 25 µg/mL (≈ 89.2 µM) | 25 µg/mL (≈ 89.2 µM) | 25 µg/mL (≈ 89.2 µM) | 25 µg/mL (≈ 89.2 µM) | 12.5 µg/mL (≈ 44.6 µM) | inactive | – | – | – | – | – | –
C=C1C(=O)O[C@H]2C[C@@]3(C)[C@H](O)CC[C@@](C)(O)[C@@H]3[C@@H](O)[C@H]12 | 1.25 µg/mL (≈ 4.43 µM) | 50 µg/mL (≈ 177 µM) | 12.5 µg/mL (≈ 44.3 µM) | 6.25 µg/mL (≈ 22.1 µM) | 25 µg/mL (≈ 88.5 µM) | 25 µg/mL (≈ 88.5 µM) | 25 µg/mL (≈ 88.5 µM) | 25 µg/mL (≈ 88.5 µM) | 12.5 µg/mL (≈ 44.3 µM) | inactive | 40.3 µM | inactive | inactive | inactive | – | GI50 [12]: inactive; LC50 [12]: inactive; TGI [12]: inactive; GI50 [13]: inactive; TGI [14]: inactive
C=C1C(=O)O[C@H]2C[C@@]3(C)[C@H](O)CCC(=C)[C@@H]3[C@@H](O)[C@H]12 | 0.625 µg/mL (≈ 2.36 µM) | 25 µg/mL (≈ 94.6 µM) | 6.25 µg/mL (≈ 23.6 µM) | 6.25 µg/mL (≈ 23.6 µM) | 25 µg/mL (≈ 94.6 µM) | 25 µg/mL (≈ 94.6 µM) | 25 µg/mL (≈ 94.6 µM) | 25 µg/mL (≈ 94.6 µM) | 6.25 µg/mL (≈ 23.6 µM) | inactive | 42.7 µM | inactive | inactive | inactive | 25 µg/mL (≈ 94.6 µM) | GI50 [16]: 52.3 µM; LC50 [16]: 85.8 µM; TGI [16]: 64.2 µM; TGI [14]: inactive; GI50 [17]: 69 µM
C=C1C(=O)O[C@H]2C[C@]3(C)[C@H](O)CCC(=C)[C@@H]3[C@@H](O)[C@H]12 [ANTHEMIN B] | – | – | – | – | – | – | – | – | – | – | 52.3 µM | inactive | inactive | inactive | – | TGI [11]: 80.3 µM; GI50 [12]: inactive; LC50 [12]: inactive; TGI [12]: inactive; GI50 [13]: inactive
C=C1C[C@@H]2OC(=O)C(=C)[C@H]2[C@@H](O)/C=C(\C)CCC1=O [ANTHEMIN C] | 1.25 µg/mL (≈ 4.77 µM) | – | 12.5 µg/mL (≈ 47.7 µM) | 25 µg/mL (≈ 95.3 µM) | – | – | – | – | 12.5 µg/mL (≈ 47.7 µM) | inactive | – | – | – | – | – | –
c1ccc(-c2ccc(C(c3ccccc3)n3ccnc3)cc2)cc1 (centres undefined) [BIFONAZOLE] | – | – | – | – | – | – | – | – | – | inactive | – | – | – | – | 200 µg/mL (≈ 644 µM) | –
C=C1C(=O)O[C@H]2C[C@@]3(C)[C@H](C(=C)CC[C@@H]3O)[C@@H](O)[C@H]12 [ELEGALACTONE A] | 50 µg/mL (≈ 189 µM) | – | 50 µg/mL (≈ 189 µM) | – | – | – | – | – | – | inactive | 76 µM | inactive | inactive | inactive | – | GI50 [12]: inactive; LC50 [12]: inactive; TGI [12]: inactive; GI50 [13]: inactive; TGI [14]: inactive
CN[C@@H]1[C@H](O[C@H]2[C@H](O[C@H]3[C@H](O)[C@@H](O)[C@H](N=C(N)N)[C@@H](O)[C@@H]3N=C(N)N)O[C@@H](C)[C@]2(O)C=O)O[C@@H](CO)[C@H](O)[C@H]1O [STREPTOMYCIN] | – | – | 50 µg/mL (≈ 86 µM) | 50 µg/mL (≈ 86 µM) | 100 µg/mL (≈ 172 µM) | 200 µg/mL (≈ 344 µM) | 200 µg/mL (≈ 344 µM) | 100 µg/mL (≈ 172 µM) | 50 µg/mL (≈ 86 µM) | inactive | – | – | – | – | – | –
C=C1C(=O)O[C@H]2/C=C(\C)[C@@H](O)CC/C(C)=C/[C@@H](O)[C@H]12 [TATRIDIN A] | 0.625 µg/mL (≈ 2.36 µM) | 25 µg/mL (≈ 94.6 µM) | 6.25 µg/mL (≈ 23.6 µM) | 6.25 µg/mL (≈ 23.6 µM) | 25 µg/mL (≈ 94.6 µM) | 25 µg/mL (≈ 94.6 µM) | 25 µg/mL (≈ 94.6 µM) | 25 µg/mL (≈ 94.6 µM) | 6.25 µg/mL (≈ 23.6 µM) | inactive | – | – | – | – | 25 µg/mL (≈ 94.6 µM) | –
C=C1C(=O)O[C@H]2CC(=C)[C@@H](O)CC/C(C)=C/[C@@H](O)[C@H]12 [TATRIDIN B] | 0.625 µg/mL (≈ 2.36 µM) | 25 µg/mL (≈ 94.6 µM) | 6.25 µg/mL (≈ 23.6 µM) | 6.25 µg/mL (≈ 23.6 µM) | 25 µg/mL (≈ 94.6 µM) | 25 µg/mL (≈ 94.6 µM) | 25 µg/mL (≈ 94.6 µM) | 25 µg/mL (≈ 94.6 µM) | 6.25 µg/mL (≈ 23.6 µM) | inactive | – | – | – | – | 25 µg/mL (≈ 94.6 µM) | –
CC[C@]1(O)C[C@@H]2CN(CCc3c([nH]c4ccccc34)[C@@](C(=O)OC)(c3cc4c(cc3OC)N(C)[C@H]3[C@@](O)(C(=O)OC)[C@H](OC(C)=O)[C@]5(CC)C=CCN6CC[C@]43[C@@H]65)C2)C1 [VINBLASTINE] | – | – | – | – | – | – | – | – | – | – | < 0.01 µM | – | – | – | – | TGI [11]: 1.64 µM; CC50 ([11]; read-out: LC50 (the source's name)): 2.48 µM; GI50 [16]: < 0.01 µM; TGI [16]: 1.6 µM; GI50 [17]: < 0.01 µM; TGI [17]: 0.35 µM
